{
  "source": "patent US8604163B2",
  "about": "“EEF2K assays for identifying compounds that inhibit EEF2K activity” (University of Medicine and Dentistry of New Jersey, priority 2009, dated 2013)",
  "origin": "cited, not measured here",
  "tested_on": "glioma cell lines",
  "conditions": "by inhibiting eEF2-K; Parmer et al. 1997",
  "data": [
    {"smiles": "CC(=O)c1c(O)c(C)c(O)c(Cc2c(O)c3c(c(C(=O)/C=C/c4ccccc4)c2O)OC(C)(C)C=C3)c1O", "note": "[rottlerin]", "values": [
      {"measurement": "growth of glioma cell lines", "result": "inhibit growth of glioma cell lines"}
    ]}
  ]
}
